Source: patent EP2050747A1, “Dimers of harmol or of its derivatives and uses thereof” (BioAlliance Pharma, priority 2007, dated 2009)

What was measured:
[1] = test system: melanoma cell line B16F10; experiment: Wound healing assay (cell motility); assay type: cell-based, Murine; settings: B16F10, non cytotoxic concentration (25-100 nM), 24 h after wound formation, Figure 6
Experimental: Harmol dimers have been tested in a cell motility assay: the behaviour of tumoral cells treated by these dimers was compared with non-treated tumoral cells in a wound healing assay. Wound healing assay was performed to evaluate the effect of tested molecules on motility of malignant NIH 3T3 EF cells and melanoma cell line B16F10. About 100 000-200 000 cells were seeded in a 6-well culture plate and the tested molecule was added 24 hours later. Cells were grown for 3 days to confluence about 90-95% and small scratch-wounds (1 mm width) were made with a pipette tip. […] Then, the cells were fixed for 10 min in PBS containing 3.7% formaldehyde at 4°C.

F-actin = experiment: Actin dynamics, fluorescence anisotropy assay in tumor cell cytosolic fraction; assay type: biochemical; set-up: Kobs: unit not given beside the values; settings: for Kobs: rate constant of F-actin elongation; for actin polymerisation kinetics compared with normal NIH 3T3 cytosolic fraction: tumoral NIH 3T3 EF cytosolic fraction; for F actin steady state value (Δ mA max), effect in words / F actin elongation rate constant (Kobs), effect in words: added to assay medium, versus untreated; for F actin steady state value (Δ mA max), effect in words: NIH 3T3 EF cytosolic fraction or lysate, harmol at 10 µM
Experimental: Actin dynamics have been quantified in tumor cell cytosolic fraction using the fluorescence anisotropy assay which gains access to rate constant of F-actin elongation (kobs) and steady state concentration of F-actin (Δ mA max).
All reactions were carried out at 22°C and fluorescence anisotropy signal was recovered at 520 nm with excitation at 490 nm in a Beacon 2000 (Panvera). Alexa 488 actin (Molecular Probes) was centrifuged at 35 000 rpm for 2 h at 4°C to sediment residual actin polymers in a Beckman L5-50B ultracentrifuge. […] 80% of the supernatant was withdrawn; the concentration was defined through fluorescence measurements (excitation at 490 nm and signal recovering at 520 nm). The ultracentrifuged actin concentration was calculated using the non ultracentrifuged Alexa 488 actin as a standard. The supernatant was aliquoted, frozen in liquid nitrogen and stored at -80°C.
Before experiment, an aliquot of ultracentrifuged Alexa 488 actin was diluted to a concentration of 1 mg/ml in G buffer (5 mM Tris pH 8.1, 2 mM CaCl2, 0.2 mM DTT, 0.2 mM ATP). 3 µl of diluted Alexa 488 actin was mixed in 168 µl of G buffer and actin monomers anisotropy was measured before the addition of 4 µl of polymerisation buffer (2.5 M KCI, 50 mM MgCl2, 25 mM ATP), 5 µl of G buffer in the presence or in the absence of the chemical molecule and 20 µl cellular extract of normal NIH 3T3 cells or malignant NIH 3T3 EF cells at 2 mg/ml. The final concentration of Alexa 488 actin was 4 nM. The ratio of unlabelled to labelled actin was about 140/4 nM. Measurements were made each 10 sec for 200 sec. Actin monomers anisotropy value was subtracted, yielding the anisotropy enhancement (Δ mA). The data were fitted with the equation Y= Ymax . [1- exp(- K.X)]. The curves start at zero and ascend to Ymax that corresponds to the steady state anisotropy value (Δ mA eq), with a rate constant K. Y is anisotropy values of which monomers anisotropy is substracted and X is the time (Assessment of cellular actin dynamics by measurement of fluorescence anisotropy. Anal Biochem. 2007 Aug 1;367(1):95-103. Epub 2007 Apr 5. Spitz et al.).

[2] = test system: malignant NIH 3T3 EF cells; experiment: Wound healing assay (cell motility); assay type: cell-based; settings: NIH 3T3 EF, non cytotoxic concentration (25-100 nM), 10 h after wound formation, Figure 5
Experimental: Harmol dimers have been tested in a cell motility assay: the behaviour of tumoral cells treated by these dimers was compared with non-treated tumoral cells in a wound healing assay. Wound healing assay was performed to evaluate the effect of tested molecules on motility of malignant NIH 3T3 EF cells and melanoma cell line B16F10. About 100 000-200 000 cells were seeded in a 6-well culture plate and the tested molecule was added 24 hours later. Cells were grown for 3 days to confluence about 90-95% and small scratch-wounds (1 mm width) were made with a pipette tip. Cell debris were removed, then the cultures were incubated in complete medium for 10 h in the presence of the same concentration of the tested molecule. Then, the cells were fixed for 10 min in PBS containing 3.7% formaldehyde at 4°C.

B16F10 [3] = experiment: MTT assay (cellular viability); assay type: cell-based, Murine; settings: for IC50: Mus musculus, B16-F10, 72 h, B16F10, 3 days
Experimental: (§1) Growth studies were performed using the [3-(4,5 dimethylthiazol-2-yl)-2,5-diphenyl-2H-tetrazolium bromide] (Sigma) colorimetric assay.
(§2) About 1500 cells were seeded in a 96-well culture plate 24 hours before adding increasing concentrations of tested molecule. The plate was incubated at 37°C for 3 days. 10 µl MTT stock solution (5 mg/ml in phosphate buffer saline) was added to 90 µl of complete medium in each well, the incubation was continued for 3 h at 37°C. 100 µl of lysis buffer (10 % sodium dodecyl sulfate, 1% HCl 1N; pH 4.7) was added to each well, and the plate was incubated overnight. The absorbance was determined using an Integrated EIA Management System (Labsystem) at a wavelength of 570 nm. The proliferation rates were calculated from the OD readings using the untreated cells as 100%.

NIH 3T3 EF [4] = experiment: Cloning assay, colony formation in semi solid medium (methylcellulose); assay type: cell-based; settings: for inhibitory activity on NIH 3T3 EF colony formation in methylcellulose semi-solid medium: Figure 2; for IC50: Mus musculus, NIH3T3, 504 h, NIH 3T3 EF, 3 weeks, read-out: Inhibition of colony formation (methylcellulose) IC50
Experimental: (§3) Cells were embedded in complete culture medium supplemented with 0,8% methylcellulose (Methocel MC4000, Sigma), seeded in triplicate into 35-mm dishes (Greiner Bio-one Ref 627102, Dominique Dutscher) and incubated at 37 °C in a humidified 5% CO2 atmosphere.
(§4) The number of cells seeded was 1000 cells per dish. After one week (B16F10 cell line) to 3 weeks (NIH 3T3 EF cell line), macroscopic clones were counted.

NIH 3T3 EF cells = experiment: Rescue of F-actin network, FITC-phalloidin fluorescence microscopy; assay type: cell-based; settings: non cytotoxic concentration (100 nM), three days, Figure 4
Experimental: Malignant NIH 3T3 EF cells were seeded onto glass cover slips at a density of 2000 cells per cm^2. The next day, tested molecules were applied to NIH 3T3 EF cells at various non cytotoxic concentrations. Three days later, cells were fixed for 10 min in PBS containing 3.7 % formaldehyde at 4°C before examination with a fluorescence microscope. The formaldehyde solution was neutralized with 50 mM NH4Cl. Permeabilisation was carried out for 4 min with 0.4% Triton X-100 in PBS. Cells were incubated for 1 h at room temperature with blocking buffer (3% bovine serum albumin in PBS) and then for 1 h with FITC-phalloidin (Sigma) which stabilizes structures by inhibiting phosphate release from ADP-Pi-actin filaments and allows visualization of actin filaments by fluorescence microscopy. The cover slips were mounted on microscope slides using a solution of glycerol 50%, DABCO 2.5% in PBS as embedding medium.

B16F10 [5] = experiment: Cloning assay, colony formation in semi solid medium (methylcellulose); assay type: cell-based, Murine; settings: for IC50: Mus musculus, B16-F10, 168 h, B16F10, one week, read-out: Inhibition of colony formation (methylcellulose) IC50
Experimental: as §3, §4

NIH 3T3 EF [6] = experiment: MTT assay (cellular viability); assay type: cell-based; settings: Mus musculus, NIH3T3, 72 h, 3 days
Experimental: as §1, §2

[7] = 10 µM, NIH 3T3 EF extract, steady state concentration of F-actin (anisotropy enhancement)

Cc1nccc2c1[nH]c1cc(OCC3OC(C)(C)OC3COc3ccc4c(c3)[nH]c3c(C)nccc34)ccc12 (stereo not drawn) [BA016DD1183, 7,7'-[(2,2-dimethyl-1,3-dioxolane-4,5-diyl)bis(methyleneoxy)]bis(1-methyl-9H-β-carboline)]
inhibition of malignant cell motility [1]: inhibited
Kobs (F-actin; 10 µM, NIH 3T3 EF extract): 0,158
Δ mA max (F-actin; [7]): 61
actin polymerisation kinetics compared with normal NIH 3T3 cytosolic fraction (F-actin; 10 µM): similar
F actin steady state value (Δ mA max), effect in words (F-actin): increased
F actin elongation rate constant (Kobs), effect in words (F-actin; NIH 3T3 EF cytosolic fraction): increased
inhibition of malignant cell motility [2]: inhibited
IC50 (B16F10 [3]): 750 nM
inhibitory activity on NIH 3T3 EF colony formation in methylcellulose semi-solid medium (NIH 3T3 EF [4]): marked inhibitory activity
IC50 (NIH 3T3 EF [4]): 300 nM
reorganisation of the actin network in tumor cells (NIH 3T3 EF cells): able to reorganise the actin network
inhibitory activity on B16F10 colony formation in methylcellulose semi-solid medium (B16F10 [5]; Figure 3): marked inhibitory activity
IC50 (B16F10 [5]): 125 nM
IC50 (NIH 3T3 EF [6]): 1000 nM

COc1ccc2c3ccnc(C)c3n(CCCCCn3c4cc(OC)ccc4c4ccnc(C)c43)c2c1 [BA016FZ518, 9,9'-pentane-1,5-diylbis(7-methoxy-1-methyl-9H-β-carboline)]
inhibition of malignant cell motility [1]: inhibited
Kobs (F-actin; 10 µM, NIH 3T3 EF extract): 0,104
Δ mA max (F-actin; [7]): 59
actin polymerisation kinetics compared with normal NIH 3T3 cytosolic fraction (F-actin; 10 µM): similar
F actin steady state value (Δ mA max), effect in words (F-actin): increased
F actin elongation rate constant (Kobs), effect in words (F-actin; NIH 3T3 EF cytosolic fraction): increased
inhibition of malignant cell motility [2]: inhibited
IC50 (B16F10 [3]): 3000 nM
inhibitory activity on NIH 3T3 EF colony formation in methylcellulose semi-solid medium (NIH 3T3 EF [4]): marked inhibitory activity
IC50 (NIH 3T3 EF [4]): 250 nM
reorganisation of the actin network in tumor cells (NIH 3T3 EF cells): able to reorganise the actin network
inhibitory activity on B16F10 colony formation in methylcellulose semi-solid medium (B16F10 [5]; Figure 3): marked inhibitory activity
IC50 (B16F10 [5]): 40 nM
IC50 (NIH 3T3 EF [6]): 750 nM

Cc1nccc2c1[nH]c1cc(OCCCOc3ccc4c(c3)[nH]c3c(C)nccc34)ccc12 [BA016FZ527, 7,7'-[Propane-1,3-diylbis(oxy)]bis(1-methyl-9H-β-carboline)]
inhibition of malignant cell motility [1]: inhibited
F actin steady state value compared with NIH 3T3 cytosolic fraction (F-actin; 10 µM, NIH 3T3 EF cytosolic fraction): higher
Kobs (F-actin; 10 µM, NIH 3T3 EF extract): 0,132
Δ mA max (F-actin; [7]): 83
F actin elongation rate constant compared with NIH 3T3 cytosolic fraction (F-actin; NIH 3T3 EF cytosolic fraction, BA016FZ527 at 10 µM, harmine concentration not given): higher
F actin steady state value (Δ mA max), effect in words (F-actin): increased
F actin elongation rate constant (Kobs), effect in words (F-actin; NIH 3T3 EF cytosolic fraction): increased
inhibition of malignant cell motility [2]: inhibited
IC50 (B16F10 [3]): 1500 nM
inhibitory activity on NIH 3T3 EF colony formation in methylcellulose semi-solid medium (NIH 3T3 EF [4]): marked inhibitory activity
IC50 (NIH 3T3 EF [4]): 500 nM
reorganisation of the actin network in tumor cells (NIH 3T3 EF cells): able to reorganise the actin network
inhibitory activity on B16F10 colony formation in methylcellulose semi-solid medium (B16F10 [5]; Figure 3): marked inhibitory activity
IC50 (B16F10 [5]): 175 nM
IC50 (NIH 3T3 EF [6]): 1000 nM

Cc1nccc2c1[nH]c1cc(O)ccc12 [harmol]
Δ mA max (F-actin; 10 µM, tumoral NIH3T3 EF cellular lysate): 42 mA
F actin steady state value (Δ mA max), effect in words (F-actin): No increase
cytotoxicity as measured by MTT test (B16F10 [3]; at 3 µM): non-cytotoxic concentration
inhibitory activity on B16F10 colony formation in methylcellulose semi-solid medium (B16F10 [5]; at 3 µM): did not display an inhibitory activity
